Experimental data as given in ChEMBL document CHEMBL1153031, “Evaluation of anti-inflammatory effect of synthetic 1,5-bis(4-acetoxy-3-methoxyphenyl)-1,4-pentadien-3-one, HB2” (Bioorg Med Chem, 2009).
Calls of active or inactive are those of the source. No cut-off for these calls is given here.

Tests used:
Mus musculus [1] = test: Antiinflammatory activity against carrageenan-induced paw oedema in mouse at 1 mg/kg, ip treated 30 mins before carrageenan challenge measured after 2 hrs by plethysmometry analysis; format: functional; details: route intraperitoneal
Mus musculus [2] = test: Antiinflammatory activity against carrageenan-induced paw oedema in mouse at 1 mg/kg, ip treated 30 mins before carrageenan challenge measured after 5 hrs by plethysmometry analysis; format: functional; details: route intraperitoneal
Mus musculus [3] = test: Antiinflammatory activity against bradykinin-induced paw oedema in mouse at 1 mg/kg, ip treated 30 mins before bradykinin challenge measured after 120 mins by plethysmometry analysis; format: functional; details: route intraperitoneal
Mus musculus [4] = test: Antiinflammatory activity against carrageenan-induced paw oedema in mouse at 1 mg/kg, ip treated 30 mins before carrageenan challenge measured after 6 hrs by plethysmometry analysis; format: functional; details: route intraperitoneal
Mus musculus [5] = test: Antiinflammatory activity against bradykinin-induced paw oedema in mouse at 1 mg/kg, ip treated 30 mins before bradykinin challenge measured after 60 mins by plethysmometry analysis; format: functional; details: route intraperitoneal
Mus musculus [6] = test: Antiinflammatory activity against bradykinin-induced paw oedema in mouse at 1 mg/kg, ip treated 30 mins before bradykinin challenge measured after 30 mins by plethysmometry analysis; format: functional; details: route intraperitoneal
Mus musculus [7] = test: Antiinflammatory activity against bradykinin-induced paw oedema in mouse at 1 mg/kg, ip treated 30 mins before bradykinin challenge measured after 15 mins by plethysmometry analysis; format: functional; details: route intraperitoneal
Mus musculus [8] = test: Antiinflammatory activity against bradykinin-induced paw oedema in mouse at 1 mg/kg, ip treated 30 mins before bradykinin challenge measured after 240 mins by plethysmometry analysis; format: functional; details: route intraperitoneal
Mus musculus [9] = test: Antiinflammatory activity against carrageenan-induced paw oedema in mouse at 1 mg/kg, ip treated 30 mins before carrageenan challenge measured after 4 hrs by plethysmometry analysis; format: functional; details: route intraperitoneal
Mus musculus [10] = test: Antiinflammatory activity against carrageenan-induced paw oedema in mouse at 1 mg/kg, ip treated 30 mins before carrageenan challenge measured after 1 hr by plethysmometry analysis; format: functional; details: route intraperitoneal
Mus musculus [11] = test: Neurotoxicity in mouse assessed as depression activity at 1 mg/kg, ip administered 15 mins before test measured after 60 seconds by rotarod test; format: toxicity, organism-based; parameters: dose 1 mg/kg, route intraperitoneal; details: in vivo, 0.25 h
Mus musculus [12] = test: Antiinflammatory activity in mouse assessed as neutrophil population in peritoneal exudate during carrageenan-induced inflammation at 0.5 mg/kg, sc administered 4 hrs before carrageenan challenge measured after 4 hrs by myeloperoxidase activity assay; format: functional; details: route subcutaneous
Mus musculus [13] = test: Antiinflammatory activity against bradykinin-induced paw oedema in mouse at 10 mg/kg, ip treated 30 mins before bradykinin challenge measured after 60 mins by plethysmometry analysis; format: functional; details: route intraperitoneal
Mus musculus [14] = test: Antiinflammatory activity against carrageenan-induced paw oedema in mouse at 10 mg/kg, ip treated 30 mins before carrageenan challenge measured after 5 hrs by plethysmometry analysis; format: functional; details: route intraperitoneal
Mus musculus [15] = test: Antiinflammatory activity against carrageenan-induced paw oedema in mouse at 10 mg/kg, ip treated 30 mins before carrageenan challenge measured after 2 hrs by plethysmometry analysis; format: functional; details: route intraperitoneal
RAW264.7 [16] = test: Reduction in LPS-induced nitric oxide production in mouse RAW264.7 cells at 10 uM after 24 hrs by Griess assay (Rvb=74.2 +/- 1.6 uM); format: functional
Mus musculus [17] = test: Antiinflammatory activity in mouse assessed as reduction in total cell count in peritoneal exudate during carrageenan-induced inflammation at 10 mg/kg, ip administered 30 mins before carrageenan challenge measured after 4 hrs; format: functional; parameters: scale not given: the % may be the effect or the level left; details: route intraperitoneal
Mus musculus [18] = test: Antiinflammatory activity in mouse assessed as neutrophil population in peritoneal exudate during carrageenan-induced inflammation at 1 mg/kg, ip administered 30 mins before carrageenan challenge measured after 4 hrs by myeloperoxidase activity assay; format: functional; details: route intraperitoneal
[19] = Cytotoxicity against mouse RAW264.7 cells assessed as cell viability at 1 uM after 24 hrs by MTT assay; format: cell-based; details: read-out: Activity
RAW264.7 [20] = test: Reduction in LPS-induced nitric oxide production in mouse RAW264.7 cells at 1 uM after 24 hrs by Griess assay (Rvb=74.2 +/- 1.6 uM); format: functional
Mus musculus [21] = test: Antiinflammatory activity against bradykinin-induced paw oedema in mouse at 10 mg/kg, ip treated 30 mins before bradykinin challenge measured after 120 mins by plethysmometry analysis; format: functional; details: route intraperitoneal
RAW264.7 [22] = test: Antiinflammatory activity in mouse RAW264.7 cells assessed as inhibition of LPS-induced PGE2 production at 10 uM after 24 hrs by enzyme immunoassay; format: functional; details: RAW264.7, 24 h
RAW264.7 [23] = test: Antiinflammatory activity in mouse RAW264.7 cells assessed as inhibition of LPS-induced PGE2 production at 3 uM after 24 hrs by enzyme immunoassay; format: functional; details: RAW264.7, 24 h
Mus musculus [24] = test: Neurotoxicity in mouse assessed as depression activity at 10 mg/kg, ip treated 15 mins before test measured after 60 seconds by rotarod test; format: toxicity, organism-based; parameters: dose 10 mg/kg, route intraperitoneal; details: in vivo, 0.25 h
[25] = Cytotoxicity against mouse RAW264.7 cells assessed as cell viability at 3 uM after 24 hrs by MTT assay; format: cell-based; details: read-out: Activity
Mus musculus [26] = test: Antiinflammatory activity in ip dosed mouse assessed as inhibition of acetic acid-induced abdominal constriction administered 30 mins before acetic acid challenge; format: functional, Abdomen
Mus musculus [27] = test: Antiinflammatory activity against bradykinin-induced paw oedema in mouse at 10 mg/kg, ip treated 30 mins before bradykinin challenge measured after 15 mins by plethysmometry analysis; format: functional; details: route intraperitoneal
Mus musculus [28] = test: Antinociceptive activity against formalin-induced nociception in mouse assessed as inhibition of paw licking time at 10 mg/kg, ip administered 30 mins before formalin challenge measured after 30 mins relative to control; format: functional; details: route intraperitoneal
Mus musculus [29] = test: Antiinflammatory activity in mouse assessed as reduction in total cell count in peritoneal exudate during carrageenan-induced inflammation at 0.5 mg/kg, sc administered 4 hrs before carrageenan challenge measured after 4 hrs; format: functional; parameters: scale not given: the % may be the effect or the level left; details: route subcutaneous
Mus musculus [30] = test: Antiinflammatory activity in mouse assessed as neutrophil population in peritoneal exudate during carrageenan-induced inflammation at 10 mg/kg, ip administered 30 mins before carrageenan challenge measured after 4 hrs by myeloperoxidase activity assay; format: functional; details: route intraperitoneal
Mus musculus [31] = test: Antinociceptive activity against formalin-induced nociception in ip dosed mouse assessed as inhibition of paw licking time administered 30 mins before formalin challenge measured after 30 mins; format: functional, organism-based
Mus musculus [32] = test: Antiinflammatory activity against carrageenan-induced paw oedema in mouse at 10 mg/kg, ip treated 30 mins before carrageenan challenge measured after 1 hr by plethysmometry analysis; format: functional; details: route intraperitoneal
[33] = Cytotoxicity against mouse RAW264.7 cells assessed as cell viability at 10 uM after 24 hrs by MTT assay; format: cell-based; details: read-out: Activity
Mus musculus [34] = test: Antiinflammatory activity against carrageenan-induced paw oedema in mouse at 10 mg/kg, ip treated 30 mins before carrageenan challenge measured after 6 hrs by plethysmometry analysis; format: functional; details: route intraperitoneal
RAW264.7 [35] = test: Reduction in LPS-induced nitric oxide production in mouse RAW264.7 cells at 3 uM after 24 hrs by Griess assay (Rvb=74.2 +/- 1.6 uM); format: functional
Mus musculus [36] = test: Antiinflammatory activity against bradykinin-induced paw oedema in mouse at 10 mg/kg, ip treated 30 mins before bradykinin challenge measured after 240 mins by plethysmometry analysis; format: functional; details: route intraperitoneal
Mus musculus [37] = test: Antiinflammatory activity in mouse peritoneal cavity assessed as reduction in cell migration during carrageenan-induced inflammation at 1 mg/kg, ip administered 30 mins before carrageenan challenge measured after 4 hrs; format: functional, organism-based; parameters: dose 1 mg/kg
Mus musculus [38] = test: Antiinflammatory activity in mouse assessed as neutrophil population in peritoneal exudate during carrageenan-induced inflammation at 0.1 mg/kg, ip administered 30 mins before carrageenan challenge measured after 4 hrs by myeloperoxidase activity assay; format: functional; details: route intraperitoneal
Mus musculus [39] = test: Neurotoxicity in mouse assessed as muscular impairment at 1 mg/kg, ip administered 15 mins before test measured after 60 seconds by rotarod test; format: toxicity, organism-based; parameters: dose 1 mg/kg, route intraperitoneal; details: in vivo, 0.25 h
Mus musculus [40] = test: Antiinflammatory activity against carrageenan-induced paw oedema in mouse at 10 mg/kg, ip treated 30 mins before carrageenan challenge measured after 4 hrs by plethysmometry analysis; format: functional; details: route intraperitoneal
Mus musculus [41] = test: Antiinflammatory activity in mouse peritoneal cavity assessed as reduction in cell migration during carrageenan-induced inflammation at 0.1 mg/kg, ip administered 30 mins before carrageenan challenge measured after 4 hrs; format: functional, organism-based; parameters: dose 0.1 mg/kg
Mus musculus [42] = test: Antiinflammatory activity against bradykinin-induced paw oedema in mouse at 10 mg/kg, ip treated 30 mins before bradykinin challenge measured after 30 mins by plethysmometry analysis; format: functional; details: route intraperitoneal
RAW264.7 [43] = test: Antiinflammatory activity in mouse RAW264.7 cells assessed as inhibition of LPS-induced PGE2 production at 100 uM after 24 hrs by enzyme immunoassay; format: functional; details: RAW264.7, 24 h
Mus musculus [44] = test: Neurotoxicity in mouse assessed as muscular impairment at 10 mg/kg, ip administered 15 mins before test measured after 60 seconds by rotarod test; format: toxicity, organism-based; parameters: dose 10 mg/kg, route intraperitoneal; details: in vivo, 0.25 h

COc1cc(/C=C/C(=O)/C=C/c2ccc(O)c(OC)c2)ccc1O
inhibition in vivo at 1 mg/kg (Mus musculus [1]): 22.9% | inhibition in vivo at 1 mg/kg (Mus musculus [2]): 15.1% | inhibition in vivo at 1 mg/kg (Mus musculus [3]): 2.5% | inhibition in vivo at 1 mg/kg (Mus musculus [4]): 10.1% | inhibition in vivo at 1 mg/kg (Mus musculus [5]): 3.25% | inhibition in vivo at 1 mg/kg (Mus musculus [6]): 4% | inhibition in vivo at 1 mg/kg (Mus musculus [7]): 5.04% | inhibition in vivo at 1 mg/kg (Mus musculus [8]): 2.2% | inhibition in vivo at 1 mg/kg (Mus musculus [9]): 17.4% | inhibition in vivo at 1 mg/kg (Mus musculus [10]): 14.6%

COc1cc(/C=C/C(=O)/C=C/c2ccc(OC(C)=O)c(OC)c2)ccc1OC(C)=O
Activity (Mus musculus [11]): Non-toxic | Activity (Mus musculus [12]): 98% | inhibition in vivo at 10 mg/kg (Mus musculus [13]): 2.8% | inhibition in vivo at 10 mg/kg (Mus musculus [14]): 8.57% | inhibition in vivo at 10 mg/kg (Mus musculus [15]): 12.1% | Activity (RAW264.7 [16]): 3 µM | Activity (Mus musculus [17]): 50% | Activity (Mus musculus [18]): 98% | viability at 24 h, 1 µM [19]: > 90% | Activity (RAW264.7 [20]): 49 µM | inhibition in vivo at 10 mg/kg (Mus musculus [21]): 2.5% | inhibition at 10 µM (RAW264.7 [22]): 71% | inhibition at 3 µM (RAW264.7 [23]): 48% | Activity (Mus musculus [24]): Non-toxic | viability at 24 h, 3 µM [25]: > 90% | inhibition (INH) (Mus musculus [26]): 82.5% | ED50 (Mus musculus [26]; Mus musculus, Abdomen, ip): 7.6 mg/kg | inhibition in vivo at 10 mg/kg (Mus musculus [27]): 4.25% | inhibition in vivo at 10 mg/kg (Mus musculus [28]): 86% | Activity (Mus musculus [29]): 20% | Activity (Mus musculus [30]): 98% | EC50 (Mus musculus [31]): 5.8 mg/kg | inhibition in vivo at 10 mg/kg (Mus musculus [32]): 10.8% | viability at 24 h, 10 µM [33]: > 90% | inhibition in vivo at 10 mg/kg (Mus musculus [34]): 6.57% | Activity (RAW264.7 [35]): 20 µM | inhibition in vivo at 10 mg/kg (Mus musculus [36]): 2.18% | Activity (Mus musculus [37]): inactive | Activity (Mus musculus [38]): 98% | Activity (Mus musculus [39]): Non-toxic | inhibition in vivo at 10 mg/kg (Mus musculus [40]): 8.67% | Activity (Mus musculus [41]): inactive | inhibition in vivo at 10 mg/kg (Mus musculus [42]): 3% | inhibition at 100 µM (RAW264.7 [43]): 76% | Activity (Mus musculus [44]): Non-toxic

COc1ccc2c(c1)c(CC(=O)O)c(C)n2C(=O)c1ccc(Cl)cc1 [INDOMETHACIN]
inhibition in vivo at 1 mg/kg (Mus musculus [1]): 10.8% | inhibition in vivo at 1 mg/kg (Mus musculus [2]): 6.28% | inhibition in vivo at 1 mg/kg (Mus musculus [3]): 2.09% | inhibition in vivo at 1 mg/kg (Mus musculus [4]): 5.66% | inhibition in vivo at 1 mg/kg (Mus musculus [5]): 2.5% | inhibition in vivo at 1 mg/kg (Mus musculus [6]): 3.5% | inhibition in vivo at 1 mg/kg (Mus musculus [7]): 5% | inhibition in vivo at 1 mg/kg (Mus musculus [8]): 1.9% | inhibition in vivo at 1 mg/kg (Mus musculus [9]): 7.14% | inhibition in vivo at 1 mg/kg (Mus musculus [10]): 12.6%
